# In patent US20100310563A1, “METHODS FOR TREATING INDUCED CELLULAR PROLIFERATIVE DISORDERS” (priority 2007, published 2010):
# Tested on: phosphorylated JAK2 in GFP positive peripheral blood granulocytes of the JAK2V617F mouse
# Test: FACS analysis of intracellular JAK2 phosphorylation in peripheral blood granulocytes
# Format: cell-based
# Conditions: with IL-3 and G-CSF stimulation for 60 minutes, GFP-positive granulocytes of a JAK2V617F mouse, FIG. 4B bottom
# Experimental: White cells from bone marrow and spleen were resuspended in staining buffer (BD Biosciences). Aliquots of 1×10^6 cells were stained for 20 minutes with conjugated monoclonal antibodies. Cells were washed in staining buffer and analyzed by FACS. For FACS analysis of intracellular JAK2 phosphorylation, peripheral blood of one JAK2V617F mouse and three normal BALB/c mice were collected. WBC from normal BALB/c mice were pooled together. Cells were split into three aliquots and resuspended in RPMI 1640 (Life Technologies) containing 0.5% BSA and incubated for 15 hours. Following incubation, one aliquot was stimulated with 10 ng/mL IL-3 plus 10 ng/mL granulocyte colonystimulating factor (G-CSF; StemCell) and second aliquot was stimulated with 10 ng/mL IL3, 10 ng/mL G-CSF, and 10 Amol/L AG-490 (Calbiochem) for 60 minutes and third aliquot was left unstimulated. Cells ([…]) were resuspended in 50 AL staining buffer (1% BSA and 0.1% sodium azide in PBS) and permeabilized using Fix&Perm cell permeabilization kit (Caltag Laboratories, Burlingame, Calif. and An der Grub, Vienna, Austria). The granulocyte population was selected by forward and side scatter
# To test if the mutant JAK2V617F kinase in murine leukocytes is constitutively active, peripheral blood granulocytes was analyzed by FACS for phosphorylated JAK2. […]
structure (smiles),measurement,value
N#C/C(=C/c1ccc(O)c(O)c1)C(=O)NCc1ccccc1 [AG490],phosphorylated JAK2 levels,reduced phosphorylated JAK2 levels below baseline
